Laboratory results reported in US11767320B2, “Bicyclic dione compounds as inhibitors of KRAS” (INCYTE CORPORATION, priority 2020, dated 2023).

How the values were obtained:
KRAS G12C = KRAS G12C (Homo sapiens, UniProt P01116, G12C); assay: GDP-GTP exchange assay (fluorescence based guanine nucleotide exchange, bodipy-GDP for GppNHp, SOS1); format: biochemical; settings: bodipy-loaded KRAS G12C, 2 hours pre-incubation with inhibitor, read-out: G12C_exchange (KRAS_G12C exchange assay IC50)
Method: The inhibitor potency of the exemplified compounds was determined in a fluorescence based guanine nucleotide exchange assay, which measures the exchange of bodipy-GDP (fluorescently labeled GDP) for GppNHp (Non-hydrolyzable GTP analog) to generate the active state of KRAS in the presence of SOS1 (guanine nucleotide exchange factor). Inhibitors were serially diluted in DMSO and a volume of 0.1 μL was transferred to the wells of a black low volume 384-well plate. 5 μL/well volume of bodipy-loaded KRAS G12C diluted to 5 nM in assay buffer (25 mM Hepes pH 7.5, 50 mM NaCl, 10 mM MgCl2 and 0.01% Brij-35) was added to the plate and pre-incubated with inhibitor for 2 hours at ambient temperature. Appropriate controls (enzyme with no inhibitor or with a G12C inhibitor (AMG-510)) were included on the plate. The exchange was initiated by the addition of a 5 μL/well volume containing 1 mM GppNHp and 300 nM SOS1 in assay buffer. The 10 μL/well reaction concentration of the bodipy-loaded KRAS G12C, GppNHp, and SOS1 were 5-25 nM, 500 uM, and 150 nM, respectively. The reaction plates were incubated at ambient temperature for 2 hours, a time estimated for complete GDP-GTP exchange in the absence of inhibitor. For the KRAS G12D and G12V mutants, similar guanine nucleotide exchange assays were used with 2.5 nM as final concentration for the bodipy loaded KRAS proteins and with 4 hours and 3 hours incubation after adding GppNHp-SOS1 mixture for G12D and G12V, respectively. A cyclic peptide described to selectively bind G12D mutant (Sakamoto et al., BBRC 484.3 (2017), 605-611) or internal compounds with confirmed binding were used as positive controls in the assay plates. Fluorescence intensities were measured on a PheraStar plate reader instrument (BMG Labtech) with excitation at 485 nm and emission at 520 nm.
Either GraphPad prism or XLfit was used to analyze the data. The IC50 values were derived by fitting the data to a four parameter logistic equation producing a sigmoidal dose-response curve with a variable Hill coefficient. Prism equation: Y=Bottom+(Top−Bottom)/(1+10^((Log IC50−X)*Hill slope)); XLfit equation: Y=(A+((B−A)/(1+((X/C)^D)))) where X is the logarithm of inhibitor concentration and Y is the response.

[1] = system: MIA PaCa-2 (KRAS G12C) cells; assay: Cellular pERK HTRF assay; format: cell-based; settings: Homo sapiens; MIA PaCa-2 cells, 4 hours, phospho-ERK 1/2 HTRF; read-out: G12C_pERK (KRAS_G12C pERK assay IC50)
Method: MIA PaCa-2 (KRAS G12C; ATCC® CRL-1420), A427 (KRAS G12D; ATCC® HTB53), HPAF-II (KRAS G12D; ATCC® CRL-1997) and NCI-H838 (KRAS WT; ATCC® CRL-5844) cells are purchased from ATCC and maintained in RPMI 1640 media supplemented with 10% FBS (Gibco/Life Technologies). The cells are plated at 5000 cells per well (8 uL) into Greiner 384-well low volume, flat-bottom, tissue culture treated white plates and incubated overnight at 37° C. 5% CO2. The next morning, test compound stock solutions are diluted in media at 3× the final concentration, and 4 uL are added to the cells. The plate is mixed by gentle rotation for 30 seconds (250 rpm) at room temperature. The cells are incubated with the KRAS G12C and G12D compounds for 4 hours or 2 hours respectively at 37° C., 5% CO2.
4 uL of 4× lysis buffer with blocking reagent (1:25) (Cisbio) are added to each well and plates are rotated gently (300 rpm) for 30 minutes at room temperature. 4 uL per well of Cisbio anti Phospho-ERK 1/2 d2 is mixed with anti Phospho-ERK 1/2 Cryptate (1:1) are added to each well, mixed by rotation and incubated overnight in the dark at room temperature. Plates are read on the Pherastar plate reader at 665 nm and 620 nm wavelengths. IC50 determination is performed by fitting the curve of inhibitor percent inhibition versus the log of the inhibitor concentration using the GraphPad Prism 7 software.

KRAS G12C, sequence (P01116 1-188 isoform P01116-2 G12C): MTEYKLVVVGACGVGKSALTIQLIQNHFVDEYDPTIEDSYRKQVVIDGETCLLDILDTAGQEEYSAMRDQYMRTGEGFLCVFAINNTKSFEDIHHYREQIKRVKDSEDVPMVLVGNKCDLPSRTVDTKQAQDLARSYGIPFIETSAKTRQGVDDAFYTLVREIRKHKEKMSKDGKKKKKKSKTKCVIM

Structure (SMILES)	IC50 (KRAS G12C) [nM]	IC50 [1] [nM]
C=CC(=O)N1CC(Cn2c(=O)c(=O)n(-c3c(C(C)C)cccc3C(C)C)c3nc(-c4cccc(F)c4F)c(Cl)cc32)C1 [Example 5, 1-((1-acryloylazetidin-3-yl)methyl)-7-chloro-4-(2,6-diisopropylphenyl)-6-(2,3-difluorophenyl)-1,4-dihydropyrido[2,3-b]pyrazine-2,3-dione]	≤ 100	100 to 1000
C=CC(=O)N1CC(O)(Cn2c(=O)c(=O)n(-c3c(C(C)C)cccc3C(C)C)c3nc(-c4ccccc4F)c(Cl)cc32)C1 [Example 7, 1-((1-acryloyl-3-hydroxy-azetidin-3-yl)methyl)-7-chloro-4-(2,6-diisopropylphenyl)-6-(2-fluorophenyl)-1,4-dihydropyrido[2,3-b]pyrazine-2,3-dione]	≤ 100	100 to 1000
C=CC(=O)N1CC(Cn2c(=O)c(=O)n(-c3c(C(C)C)cccc3C(C)C)c3nc(-c4ccccc4F)c(Cl)cc32)(OC)C1 [Example 8, 1-((1-acryloyl-3-methoxy-azetidin-3-yl)methyl)-7-chloro-4-(2,6-diisopropylphenyl)-6-(2-fluorophenyl)-1,4-dihydropyrido[2,3-b]pyrazine-2,3-dione]	100 to 1000	100 to 1000
C=CC(=O)N1CC(Cn2c(=O)c(=O)n(-c3c(C(C)C)cccc3C(C)C)c3nc(-c4cccc(F)c4F)c(Cl)cc32)(OC)C1 [Example 9, 1-((1-acryloyl-3-methoxy-azetidin-3-yl)methyl)-7-chloro-4-(2,6-diisopropylphenyl)-6-(2,3-difluorophenyl)-1,4-dihydropyrido[2,3-b]pyrazine-2,3-dione]	100 to 1000	100 to 1000
C=CC(=O)N1CC(F)(Cn2c(=O)c(=O)n(-c3c(C(C)C)cccc3C(C)C)c3nc(-c4ccccc4F)c(Cl)cc32)C1 [Example 10, 1-((1-acryloyl-3-fluoro-azetidin-3-yl)methyl)-7-chloro-4-(2,6-diisopropylphenyl)-6-(2-fluorophenyl)-1,4-dihydropyrido[2,3-b]pyrazine-2,3-dione]	≤ 100	100 to 1000
C=CC(=O)N1CC(F)(Cn2c(=O)c(=O)n(-c3c(C(C)C)cccc3C(C)C)c3nc(-c4cccc5ccccc45)c(Cl)cc32)C1 [Example 11, 1-((1-acryloyl-3-fluoroazetidin-3-yl)methyl)-7-chloro-6-(1-naphthyl)-4-(2,6-diisopropylphenyl)-1,4-dihydropyrido[2,3-b]pyrazine-2,3-dione]	≤ 100	100 to 1000
C=CC(=O)N1CC(F)(Cn2c(=O)c(=O)n(-c3c(C(C)C)cccc3C(C)C)c3nc(-c4c(O)cccc4F)c(Cl)cc32)C1 [Example 12, 1-((1-acryloyl-3-fluoroazetidin-3-yl)methyl)-7-chloro-4-(2,6-diisopropylphenyl)-6-(2-fluoro-6-hydroxyphenyl)-1,4-dihydropyrido[2,3-b]pyrazine-2,3-dione]	≤ 100	≤ 100
C=C(F)C(=O)N1CC(F)(Cn2c(=O)c(=O)n(-c3c(C(C)C)cccc3C(C)C)c3nc(-c4c(O)cccc4F)c(Cl)cc32)C1 [Example 13, 7-chloro-4-(2,6-diisopropylphenyl)-1-((3-fluoro-1-(2-fluoroacryloyl)azetidin-3-yl)methyl)-6-(2-fluoro-6-hydroxyphenyl)-1,4-dihydropyrido[2,3-b]pyrazine-2,3-dione]	≤ 100	≤ 100
C=CC(=O)N1CC(F)(Cn2c(=O)c(=O)n(-c3c(C(C)C)cccc3C(C)C)c3nc(-c4cc(O)cc5ccccc45)c(Cl)cc32)C1 [Example 14, 1-((1-acryloyl-3-fluoroazetidin-3-yl)methyl)-7-chloro-4-(2,6-diisopropylphenyl)-6-(3-hydroxynaphthalen-1-yl)-1,4-dihydropyrido[2,3-b]pyrazine-2,3-dione]	≤ 100	≤ 100
C=CC(=O)N1CC(F)(Cn2c(=O)c(=O)n(-c3c(C(C)C)cccc3C(C)C)c3nc(-c4c(N)cccc4F)c(Cl)cc32)C1 [Example 15, 1-((1-acryloyl-3-fluoroazetidin-3-yl)methyl)-6-(2-amino-6-fluorophenyl)-7-chloro-4-(2,6-diisopropylphenyl)-1,4-dihydropyrido[2,3-b]pyrazine-2,3-dione]	≤ 100	≤ 100
C=CC(=O)N1CC(F)(Cn2c(=O)c(=O)n(-c3c(C(C)C)cccc3C(C)C)c3nc(-c4c(O)ccc(F)c4F)c(Cl)cc32)C1 [Example 16, 1-((1-acryloyl-3-fluoroazetidin-3-yl)methyl)-7-chloro-6-(2,3-difluoro-6-hydroxyphenyl)-4-(2,6-diisopropylphenyl)-1,4-dihydropyrido[2,3-b]pyrazine-2,3-dione]	≤ 100	≤ 100
C=CC(=O)N1CC(F)(Cn2c(=O)c(=O)n(-c3c(C)ccnc3C(C)C)c3nc(-c4c(O)cccc4F)c(Cl)cc32)C1 [Example 17, 1-((1-acryloyl-3-fluoroazetidin-3-yl)methyl)-7-chloro-6-(2-fluoro-6-hydroxyphenyl)-4-(2-isopropyl-4-methylpyridin-3-yl)-1,4-dihydropyrido[2,3-b]pyrazine-2,3-dione]	≤ 100	≤ 100

Now from value to compound:

IC50 (KRAS G12C) [nM]	IC50 [1] [nM]	Structure (SMILES)
≤ 100	≤ 100	C=CC(=O)N1CC(F)(Cn2c(=O)c(=O)n(-c3c(C)ccnc3C(C)C)c3nc(-c4ccccc4F)c(Cl)cc32)C1 [Example 18, 1-((1-acryloyl-3-fluoroazetidin-3-yl)methyl)-7-chloro-6-(2-fluorophenyl)-4-(2-isopropyl-4-methylpyridin-3-yl)-1,4-dihydropyrido[2,3-b]pyrazine-2,3-dione]
≤ 100	≤ 100	C=CC(=O)N1CC(F)(Cn2c(=O)c(=O)n(-c3c(C)ccnc3C(C)C)c3nc(-c4c(N)cccc4F)c(Cl)cc32)C1 [Example 19, 1-((1-acryloyl-3-fluoroazetidin-3-yl)methyl)-6-(2-amino-6-fluorophenyl)-7-chloro-4-(2-isopropyl-4-methylpyridin-3-yl)-1,4-dihydropyrido[2,3-b]pyrazine-2,3-dione]
≤ 100		[2H]C([2H])(n1c(=O)c(=O)n(-c2c(C)ccnc2C(C)C)c2nc(-c3cccc4ccccc34)c(Cl)cc21)C1(F)CN(C(=O)C=C)C1 [Example 53, 1-((1-acryloyl-3-fluoroazetidin-3-yl)methyl-d2)-7-chloro-4-(2-isopropyl-4-methylpyridin-3-yl)-6-(naphthalen-1-yl)-1,4-dihydropyrido[2,3-b]pyrazine-2,3-dione]
100 to 1000		[2H]C([2H])(n1c(=O)c(=O)n(-c2c(C)ccnc2C(C)C)c2nc(-c3ccnc(C)c3Cl)c(Cl)cc21)C1(F)CN(C(=O)C=C)C1 [Example 54, 1-((1-acryloyl-3-fluoroazetidin-3-yl)methyl-d2)-7-chloro-6-(3-chloro-2-methylpyridin-4-yl)-4-(2-isopropyl-4-methylpyridin-3-yl)-1,4-dihydropyrido[2,3-b]pyrazine-2,3-dione]
100 to 1000		[2H]C([2H])(n1c(=O)c(=O)n(-c2c(C)ccnc2C(C)C)c2nc(-c3ccccc3-c3ccccc3)c(Cl)cc21)C1(F)CN(C(=O)C=C)C1 [Example 55, 6-([1,1′-biphenyl]-2-yl)-1-((1-acryloyl-3-fluoroazetidin-3-yl)methyl-d2)-7-chloro-4-(2-isopropyl-4-methylpyridin-3-yl)-1,4-dihydropyrido[2,3-b]pyrazine-2,3-dione]
